Data: patent US8192962B2, “Processes for detecting toxic substances” (Daikin Industries, Ltd., priority 2001, dated 2012)

Test system: Mitochondria-located protein genes
Assay: DNA chip mRNA expression in yeast, mitochondria-located protein genes (Table 2)
Type: cell-based, Saccharomyces cerevisiae S288C
Details: cells incubated two hours with the chemical substance
Method in brief: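 In this screen, yeast in logarithmic growth are challenged for two hours with a toxic substance at a non-lethal inhibitory concentration. Their mRNA, converted to Cy3- or Cy5-labeled cDNA, hybridizes at 65° C. to a chip spanning every yeast gene, and expression is expressed as a ratio to untreated cells.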

In the case of [Cl][Pb][Cl] [(4), PbCl2], the “The level of expressed mRNA in the presence of chemical substance/The level of expressed mRNA in the absence of chemical substance” value (yeast gene YAL039C) is reported as 1.0, the “The level of expressed mRNA in the presence of chemical substance/The level of expressed mRNA in the absence of chemical substance” value (yeast gene YBL022C) is reported as 0.7 and the “The level of expressed mRNA in the presence of chemical substance/The level of expressed mRNA in the absence of chemical substance” value (yeast gene YBL030C) is reported as 0.9. The “The level of expressed mRNA in the presence of chemical substance/The level of expressed mRNA in the absence of chemical substance” value (yeast gene YBL038W) was 1.8, the “The level of expressed mRNA in the presence of chemical substance/The level of expressed mRNA in the absence of chemical substance” value (yeast gene YBL099W) was 1.4 and the “The level of expressed mRNA in the presence of chemical substance/The level of expressed mRNA in the absence of chemical substance” value (yeast gene YBR003W) was 1.9. For the same compound, the “The level of expressed mRNA in the presence of chemical substance/The level of expressed mRNA in the absence of chemical substance” value (yeast gene YBR044C) was 1.9, the “The level of expressed mRNA in the presence of chemical substance/The level of expressed mRNA in the absence of chemical substance” value (yeast gene YBR091C) was 3.0 and the “The level of expressed mRNA in the presence of chemical substance/The level of expressed mRNA in the absence of chemical substance” value (yeast gene YBR122C) was 1.1. For the same compound, the “The level of expressed mRNA in the presence of chemical substance/The level of expressed mRNA in the absence of chemical substance” value (yeast gene YBR185C) was 2.0, the “The level of expressed mRNA in the presence of chemical substance/The level of expressed mRNA in the absence of chemical substance” value (yeast gene YBR221C) was 1.5 and the “The level of expressed mRNA in the presence of chemical substance/The level of expressed mRNA in the absence of chemical substance” value (yeast gene YBR251W) was 1.2. The “The level of expressed mRNA in the presence of chemical substance/The level of expressed mRNA in the absence of chemical substance” value (yeast gene YBR282W) was 2.3, the “The level of expressed mRNA in the presence of chemical substance/The level of expressed mRNA in the absence of chemical substance” value (yeast gene YCL057W) was 0.5 and the “The level of expressed mRNA in the presence of chemical substance/The level of expressed mRNA in the absence of chemical substance” value (yeast gene YCR046C) was 1.6. For the same compound, the “The level of expressed mRNA in the presence of chemical substance/The level of expressed mRNA in the absence of chemical substance” value (yeast gene YCR083W) was 1.8, the “The level of expressed mRNA in the presence of chemical substance/The level of expressed mRNA in the absence of chemical substance” value (yeast gene YDL067C) was 1.3 and the “The level of expressed mRNA in the presence of chemical substance/The level of expressed mRNA in the absence of chemical substance” value (yeast gene YDL181W) was 1.8. For the same compound, the “The level of expressed mRNA in the presence of chemical substance/The level of expressed mRNA in the absence of chemical substance” value (yeast gene YDL198C) was 1.4, the “The level of expressed mRNA in the presence of chemical substance/The level of expressed mRNA in the absence of chemical substance” value (yeast gene YDR079W) was 1.1 and the “The level of expressed mRNA in the presence of chemical substance/The level of expressed mRNA in the absence of chemical substance” value (yeast gene YDR178W) was 2.2. For the same compound, the “The level of expressed mRNA in the presence of chemical substance/The level of expressed mRNA in the absence of chemical substance” value (yeast gene YDR231C) was 1.5, the “The level of expressed mRNA in the presence of chemical substance/The level of expressed mRNA in the absence of chemical substance” value (yeast gene YDR258C) was 1.4 and the “The level of expressed mRNA in the presence of chemical substance/The level of expressed mRNA in the absence of chemical substance” value (yeast gene YDR298C) was 1.3. The “The level of expressed mRNA in the presence of chemical substance/The level of expressed mRNA in the absence of chemical substance” value (yeast gene YDR347W) was 3.5, the “The level of expressed mRNA in the presence of chemical substance/The level of expressed mRNA in the absence of chemical substance” value (yeast gene YDR377W) was 1.4 and the “The level of expressed mRNA in the presence of chemical substance/The level of expressed mRNA in the absence of chemical substance” value (yeast gene YDR529C) was 3.2. For the same compound, the “The level of expressed mRNA in the presence of chemical substance/The level of expressed mRNA in the absence of chemical substance” value (yeast gene YEL024W) was 1.1, the “The level of expressed mRNA in the presence of chemical substance/The level of expressed mRNA in the absence of chemical substance” value (yeast gene YEL039C) was 5.1 and the “The level of expressed mRNA in the presence of chemical substance/The level of expressed mRNA in the absence of chemical substance” value (yeast gene YER178W) was 1.0. For the same compound, the “The level of expressed mRNA in the presence of chemical substance/The level of expressed mRNA in the absence of chemical substance” value (yeast gene YFL016C) was 0.9, the “The level of expressed mRNA in the presence of chemical substance/The level of expressed mRNA in the absence of chemical substance” value (yeast gene YGL018C) was 3.0 and the “The level of expressed mRNA in the presence of chemical substance/The level of expressed mRNA in the absence of chemical substance” value (yeast gene YGL187C) was 1.8. For the same compound, the “The level of expressed mRNA in the presence of chemical substance/The level of expressed mRNA in the absence of chemical substance” value (yeast gene YGL191W) was 1.8, the “The level of expressed mRNA in the presence of chemical substance/The level of expressed mRNA in the absence of chemical substance” value (yeast gene YGR008C) was 3.2 and the “The level of expressed mRNA in the presence of chemical substance/The level of expressed mRNA in the absence of chemical substance” value (yeast gene YGR028W) was 1.8. The “The level of expressed mRNA in the presence of chemical substance/The level of expressed mRNA in the absence of chemical substance” value (yeast gene YGR062C) was 1.4, the “The level of expressed mRNA in the presence of chemical substance/The level of expressed mRNA in the absence of chemical substance” value (yeast gene YGR076C) was 2.3 and the “The level of expressed mRNA in the presence of chemical substance/The level of expressed mRNA in the absence of chemical substance” value (yeast gene YGR082W) was 1.0. For the same compound, the “The level of expressed mRNA in the presence of chemical substance/The level of expressed mRNA in the absence of chemical substance” value (yeast gene YGR174C) was 2.4, the “The level of expressed mRNA in the presence of chemical substance/The level of expressed mRNA in the absence of chemical substance” value (yeast gene YGR244C) was 1.6 and the “The level of expressed mRNA in the presence of chemical substance/The level of expressed mRNA in the absence of chemical substance” value (yeast gene YHR008C) was 1.8. The “The level of expressed mRNA in the presence of chemical substance/The level of expressed mRNA in the absence of chemical substance” value (yeast gene YIL155C) was 3.7, the “The level of expressed mRNA in the presence of chemical substance/The level of expressed mRNA in the absence of chemical substance” value (yeast gene YJL096W) was 1.3 and the “The level of expressed mRNA in the presence of chemical substance/The level of expressed mRNA in the absence of chemical substance” value (yeast gene YJL102W) was 0.8. The “The level of expressed mRNA in the presence of chemical substance/The level of expressed mRNA in the absence of chemical substance” value (yeast gene YJL133W) was 0.9, the “The level of expressed mRNA in the presence of chemical substance/The level of expressed mRNA in the absence of chemical substance” value (yeast gene YJL166W) was 1.3 and the “The level of expressed mRNA in the presence of chemical substance/The level of expressed mRNA in the absence of chemical substance” value (yeast gene YJL180C) was 1.3. The “The level of expressed mRNA in the presence of chemical substance/The level of expressed mRNA in the absence of chemical substance” value (yeast gene YJR077C) was 1.6 and the “The level of expressed mRNA in the presence of chemical substance/The level of expressed mRNA in the absence of chemical substance” value (yeast gene YJR121W) was 1.0.
